Data: patent publication US20230310441A1, “TREATMENT FOR SCHIZOPHRENIA” (TAKEDA PHARMACEUTICAL COMPANY, priority 2020, published 2023)

Key:
[1] = Phase 1 FIH study: safety and tolerability (TEAEs) in healthy participants; format: in vivo, human
Protocol: A phase 1 first-in-human (FIH) study was conducted at a single site in the United States to evaluate the safety, tolerability, and pharmacokinetics (PK) of Compound (I). Specifically, Compound (I) was tested to evaluate the safety, tolerability, and PK of single and multiple doses in healthy participants and as add-on therapy to antipsychotics in participants with stable schizophrenia. The phase I study also assessed the oral bioavailability of Compound (I) in healthy participants administered a tablet formulation compared to an oral suspension formulation in a fasted state, as well the effect of a high-fat, high-calorie meal on the PK of a single dose of a tablet formulation of Compound (I). Additional exploratory pharmacodynamic analysis was undertaken in patients with stable schizophrenia to inform future studies.
Cohorts in Parts 1 and 2 were randomized to receive either Compound (I) or placebo in a 6:2 ratio. Cohorts in Part 3 were randomized in a 1:1 ratio, while the cohort in Part 4 was randomized in a 2:1 ratio.
Part 1 was a double-blind, SRD study in healthy adults, utilizing an alternate panel design (cohorts 1, 2) and sequential panel design (cohorts 3-5). Cohorts 1 and 2 were part of a two-period, alternating-panel, double-blind study of Compound (I) administered as an oral suspension (5 mg, 10 mg, 20 mg, or 40 mg) or matched placebo, with a washout period of at least 7 days between treatment periods. Cohorts 3-5 were part of a sequential-panel, double-blind study to evaluate the SRDs of Compound (I) (80, 120, or 160 mg, respectively) or matched placebo. Although planned, all subsequent doses after the dose of 80 mg were determined based on emerging safety, tolerability, and PK data from the preceding cohorts.
In Part 2, participants received either placebo on all dosing days or a loading dose of Compound (I) on Day 1 and a maintenance dose of half the initial dose on Days 8, 15 and 22, administered as an oral suspension. Baseline measurements were obtained on Day −2, and study-specific measurements were obtained following oral dose administrations on Days 1, 8, 15, and 22.
Part 3 was a randomized, open-label, single-dose, parallel design study to evaluate the bioavailability of a Compound (I) tablet formulation relative to a Compound (I) oral suspension formulation and the effect of food on the PK in healthy participants. The immediate release tablet contained mannitol, microcrystalline cellulose, and other commonly used excipients. Participants were randomized 1:1 to receive a single 40 mg dose of Compound (I) as a tablet after either 10 h overnight fast, or 30 min after beginning ingestion of a high-fat, high-calorie breakfast.
Safety measurements used in the phase 1 study included treatment-emergent adverse events (TEAEs), physical examinations, weight, height, BMI, vital signs, clinical laboratory evaluations, pregnancy monitoring, and ECG procedures.
TEAEs were defined as any adverse event that occurred or worsened after receiving the first dose of Compound (I) and within 6 weeks after the last dose of Compound (I). Participants experiencing two or more different TEAEs were counted only once. Frequent TEAEs were defined as adverse events that occurred in at least two participants in any treatment. Participants were evaluated with respect to mood and alertness (BL-VAS) and suicidality (C-SSRS).

[2] = Separate single dose oral study: half-life in dogs; conditions: dog, in vivo; single dose oral administration of 5-15 mg/kg
Description: The mean t1/2z for Compound (I) reflects the prolonged half-life of Compound (I) in humans. […] In that study, the mean human half-life of Compound (I) (approximately 11 days) was substantially higher than the 2-4 hr mean half-life observed in rats and dogs.

[3] = tested on: ventral striatum activation; assay: fMRI BOLD ventral striatum activation in the MID Reward Task; format: in vivo, human
Description: After a break, subjects took the second block that comprised a battery of imaging tests; namely, brain perfusion using non-contrast arterial spin labeling MRI and fMRI scans which monitor changes in blood oxygen level-dependent (BOLD) signal. The fMRI was run in resting state without a task (resting state fMRI) and with 2 tasks (2-task fMRI) using the monetary incentive delay (MID) Reward Task and a Set-Shifting Task. After a break, subjects took the third block which comprised the Effort Expenditure for Rewards Task and the Empathic Accuracy Task. Subjects also received the Positive and Negative Syndrome Scale (PANSS), the Brief Negative Syndrome Scale (BNSS), and the Clinical Global Impression (CGI) Scales (CGI-Severity and CGI-Improvement) as a part of the PD assessment.
The BOLD signal in the average of the left and right ventral striatum activation in the MID Reward Task 3.5 h post-dose on Day 1 and the BACS composite score on Day 14 were the primary PD measures.
The observed BOLD signal was summarized (N, mean, median, SD, minimum, and maximum) by treatment (Compound (I) (overall and by dose) and placebo) and time. The BACS composite score was summarized for baseline, post-dose, and change from baseline by treatment, dose, and time.
Each of the primary PD measures was analyzed using a Bayesian normal linear model with effects for sequence, period, treatment, time (as a categorical variable), the treatment-by-time interaction, subject within treatment sequence, and baseline (for BACS only). For the BOLD fMRI, the observed value was the response variable in the model. For the BACS, the observed and the change from baseline were modeled separately. Missing values were not imputed and were not included in the model under a missing at random assumption. A diffuse normal distribution with mean zero and variance 106 was used as a prior for the regression coefficients and a diffuse inverse gamma with shape and scale parameters of 0.01 for the residual variance.
The criteria for a positive result at the IA was 70% posterior probability (or greater) of a difference between Compound (I) and placebo >0.09 in ventral striatum activation in the MID fMRI at 3.5 h post-dose on Day 1 or 70% (or greater) posterior probability of a difference between Compound (I) and placebo >2 points in the BACS composite score at Day 14.

[4] = Part 2 MRD, 40/20 mg, N = 6, participants (percent)
[5] = Part 2 MRD, 80/40 mg, N = 6, participants (percent)
[6] = Part 2 MRD, 120/60 mg, N = 6, participants (percent)
[7] = Part 2 MRD, 160/80 mg, N = 6, participants (percent)

## C[C@H](NC(=O)Cn1nnc2ccccc2c1=O)c1ccc(OC(F)(F)F)cc1 [Compound (I), (S)-2-(4-oxobenzo[d][1,2,3]triazin-3(4H)-yl)-N-(1-(4-(trifluoromethoxy)phenyl)ethyl)acetamide]
[1]; Part 1 (SRD)
  TEAEs related to the study drug (investigator): None of the TEAEs were considered to be related to the study drug
[1]; Part 1 (SRD), participants who received Compound (I)
  participants who experienced a TEAE: 20.0%
[1]; [4]
  Any TEAE: 4 (66.7)
  TEAE Mild: 4 (66.7)
  TEAE Not related: 4 (66.7)
[1]; [5]
  Any TEAE: 4 (66.7)
  TEAE Mild: 4 (66.7)
  TEAE Not related: 3 (50.0)
  TEAE Related: 1 (16.7)
[1]; [6]
  Any TEAE: 3 (50.0)
  TEAE Mild: 2 (33.3)
  TEAE Moderate: 1 (16.7)
  TEAE Not related: 3 (50.0)
[1]; [7]
  Any TEAE: 5 (83.3)
  TEAE Mild: 5 (83.3)
  TEAE Not related: 2 (33.3)
  TEAE Related: 3 (50.0)
[1]; Part 3, single dose after overnight fast of at least 10 h, tablet
  participants who experienced a TEAE: 11.1%
[1]; Part 3, single dose following high-fat, high-calorie breakfast, tablet
  participants who experienced a TEAE: 22.2%
[1]; phase 1 study, all parts
  discontinuations due to TEAEs: No discontinuations due to TEAEs occurred
[1]; phase 1 study, all parts, 114 randomized participants
  deaths, serious adverse events, or other significant TEAEs: No deaths, serious adverse events, or other significant TEAEs were reported
[1]; phase 1 study, single and repeated oral doses, healthy volunteers and patients with stable schizophrenia
  tolerability: generally well-tolerated
[1]; phase 1 study, frequency appeared to increase with higher doses
  headache frequency vs placebo: more frequently with Compound (I) than with placebo
[2]
  half-life: 2 to 4 h
[3]; Day 1
  ventral striatal activation relative to placebo: decrease in ventral striatal activation
[3]; Day 1, 40 mg
  posterior mean (SD) for the difference to placebo, fMRI BOLD endpoint: −0.1 (0.21)
[3]; Day 1, 160 mg
  posterior mean (SD) for the difference to placebo, fMRI BOLD endpoint: −0.15 (0.14)
[3]; Day 1, overall
  posterior mean (SD) for the difference to placebo, fMRI BOLD endpoint: −0.14 (0.11)
[3]; Day 14
  ventral striatal activation relative to placebo: dose-related increase in activation relative to placebo
